Test results from US20100093064A1, “Metagenomic Functional Selection” (PRESIDENT AND FELLOWS OF HARVARD COLLEGE, priority 2008, published 2010).

What was measured:
E. coli [1] = assay: Selective inhibitory concentration of lignocellulosic compounds in LB-agar; type: cell-based, Escherichia coli; conditions: 48 hours of growth at 37° C., lowest concentration tested which prevented colony formation
Protocol: The inhibitory concentrations of 14 lignocellulosic compounds in LB-agar (Table 2) were determined for two versions of the E. coli strain used to create the mgDNA libraries—a strain with a control pCC1FOS fosmid insert containing E. coli genomic DNA, and an untransformed strain. […] A range of concentrations for each lignocellulosic compound were tested, based on inhibitory concentrations for E. coli previously reported (1-3).

E. coli [2] = assay: Kinetic growth / biomass yield analysis in liquid LB-chlor with inhibitor; type: cell-based, Escherichia coli; conditions: for Improvement in biomass yield due to selected metagenomic insert: vs E. coli control, at the inhibitor concentration giving 90% reduction of wild type biomass yield, mgFurAc/2-furoic acid, mgSyrAld/syringaldehyde, mgMetCat/4-methylcatechol; for Inhibitor concentration resulting in 90% reduction in growth yield: wild-type/control E. coli, 24 hours of growth at 37° C.
Protocol: […] DNA library clones conferring tolerance to each of three inhibitors were chosen for further analysis of encoded functional parts from the selected inhibitor plates. For 4-methycatechol, 5 tolerant clones each were chosen from selected mgDNA libraries 1, 3, 4, and 5 (FIG. 2A). For 2-furoic acid, 6-7 tolerant clones each were chosen from selected mgDNA libraries 1, 3 and 4 (FIG. 2A). For syringaldehyde, 10 tolerant clones each were chosen from selected mgDNA libraries 4 and 5 (FIG. 2A). Each colony was grown to saturation (16-18 hours) at 37° C. with shaking in liquid LB medium containing 12.5 μg/mL-chloramphenicol (hereon referred to as LB-chlor). Saturated cultures were diluted 1:40 in fresh LB-chlor and grown to mid-log phase (1-2 hours) at 37° C. with shaking. Log-phase cultures were inoculated (1:40) into LB-chlor containing one of three concentrations of the relevant inhibitor (4-methylcatechol: 0.2, 0.6 and 1 g/L; 2-furoic acid: 0.8, 7.9, 15 g/L; syringaldehyde: 1.55, 1.775 and 2 g/L), with concentrations chosen to sparsely span the range of previously reported inhibitory concentrations of these compounds (J. Zaldivar, L. O. Ingram, Biotechnol Bioeng 66, 203 (1999); J. Zaldivar, A. Martinez, L. O. Ingram, Biotechnol Bioeng 65, 24 (Oct. 5, 1999); J. Zaldivar, A. Martinez, L. O. Ingram, Biotechnol Bioeng 68, 524 (Jun. 5, 2000)). Biomass yield after 24 hours of growth at 37° C. with shaking was determined by end-point turbidity measurements at 600 nm using a Versamax microplate reader (Molecular Devices).
Three mgDNA clones per inhibitor with the highest biomass differential when compared to the E. coli control were chosen for kinetic growth analysis. Growth kinetics were measured at 11 concentrations per inhibitor, evenly spanning the following concentration ranges: 0-1 g/L 4-methylcatechol, 0-1.5 g/L 2-furoic acid, and 0-3 g/L syringaldehyde. Kinetic measurements were done in triplicate for each mgDNA clone and E. coli control by 600 nm measurements every 5 minutes over 24 hours at 37° C. with shaking in a Versamax microplate reader.
To determine whether the observed tolerance in the selected clones was a result of functional parts encoded by mgDNA, fosmids from the 3 kinetically characterized mgDNA clones per inhibitor were extracted using the FosmidMAX DNA Purification Kit (catalog #FMAX046, Epicentre Biotechnologies). Purified fosmids were then retransformed into an electro-competent version of the same control E. coli strain using a standard electroporation protocol. 3 transformant colonies for each of the 3 kinetically characterized mgDNA clones per inhibitor were chosen for a repeat of the inhibitor tolerance kinetic growth analysis (see above). All of the retransformed fosmids for 4-methylcatechol and 2-furoic acid and 2 of the 3 retransformed fosmids for syringaldehyde recapitulated the improved inhibitor tolerance compared to the E. coli control seen for the original mgDNA selected clones. […] Kinetic growth plots for the mgDNA clone with the best improvements in biomass yield at these concentrations per inhibitor are shown in FIG. 4, over a range of inhibitor concentrations. These selected clones were from mgDNA library 3 for 2-furoic acid (mgFurAc), library 4 for syringaldehyde (mgSyrAld), and library 3 for 4-methylcatechol (mgMetCat).

[3] = tested on: oral and gut human-associated microbiome isolates; assay: Antibiotic resistance profiling of human-associated microbiome isolates; type: cell-based, bacteria isolated from human sputum and fecal samples; conditions: for Microbiome isolates resistant, on average: 1102 oral and gut isolates, antibiotic 20 mg/L in LB
Protocol: Three sputum samples (oral microbiomes) and two fecal samples (gut microbiomes) were collected from three healthy volunteers at three different sampling times (day 1, 140 and 141), and fresh samples were plated on Luria broth (LB) agar. […]. Cultures were incubated for 16 hours at 37° C. and growth was assayed by absorption at 600 nm.

SMILES	Inhibitory Concentration (E. coli [1]) [g/L]	further results
O=C(O)c1ccco1 [2-Furoic acid]	0.80	Improvement in biomass yield due to selected metagenomic insert (E. coli [2]): 6.9 fold; Inhibitor concentration resulting in 90% reduction in growth yield (E. coli [2]): 1.05 g/L
O=C(O)c1ccc(O)cc1 [4-hydrobenzoic acid]	7.90	–
O=Cc1ccc(O)cc1 [4-hydroxy-benzaldhehyde]	1.25	–
CC(=O)O [Acetic Acid]	5.00	–
CCO [Ethanol]	55.00	–
O=CO [Formic acid]	1.15	–
O=Cc1ccco1 [Furfural]	2.95	–
Oc1ccc(O)cc1 [Hydroquinone]	1.85	–
CC(=O)CCC(=O)O [Levulinic acid]	3.00	–
Cc1ccc(O)c(O)c1 [Methylcatechol, 4-methylcatechol]	0.20	Improvement in biomass yield due to selected metagenomic insert (E. coli [2]): 6.0 fold; Inhibitor concentration resulting in 90% reduction in growth yield (E. coli [2]): 0.33 g/L
COc1cc(C=O)cc(OC)c1O [Syringaldehyde]	1.55	Improvement in biomass yield due to selected metagenomic insert (E. coli [2]): 5.7 fold; Inhibitor concentration resulting in 90% reduction in growth yield (E. coli [2]): 1.33 g/L
COc1cc(C(=O)O)cc(OC)c1O [Syringic acid]	9.55	–
COc1cc(C(=O)O)ccc1O [Vanillic acid]	8.08	–
COc1cc(C=O)ccc1O [Vanillin]	1.50	–
CC1(C)S[C@@H]2[C@H](NC(=O)C(C(=O)O)c3ccccc3)C(=O)N2[C@H]1C(=O)O (some centres unmarked) [carbenicillin]	–	Microbiome isolates resistant, on average [3]: 39%
O=C(N[C@H](CO)[C@H](O)c1ccc([N+](=O)[O-])cc1)C(Cl)Cl [chloramphenicol]	–	Microbiome isolates resistant, on average [3]: 7%; Susceptibility of gut microbiome isolates ([3]; gut isolates from all sampling times, 20 mg/L): almost completely susceptible; O3 day 1 isolates resistant ([3]; oral microbiome O3, day 1, 20 mg/L): 87%
O=C(O)c1cn(C2CC2)c2cc(N3CCNCC3)c(F)cc2c1=O [ciprofloxacin]	–	Microbiome isolates resistant, on average [3]: 26%
C[C@H]1COc2c(N3CCN(C)CC3)c(F)cc3c(=O)c(C(=O)O)cn1c23 [levofloxacin]	–	Microbiome isolates resistant, on average [3]: 22%
